Patent publication US11787780B2 (CORCEPT THERAPEUTICS INCORPORATED, priority 2020, dated 2023)

Tested on: induction of TAT by dexamethasone in HepG2 cells
Test: Hep G2 TAT assay (inhibition of dexamethasone-induced TAT)
Format: cell-based, human
Settings: challenge of 100 nM dexamethasone, IC50 converted to Ki by Cheng and Prusoff equation
Protocol: Glucocorticoid mediated activation of TAT occurs by transactivation of glucocorticoid response elements in the TAT promoter by glucocorticoid receptor-agonist complex. The following protocol describes an assay for measuring induction of TAT by dexamethasone in HepG2 cells (a human liver hepatocellular carcinoma cell line; ECACC, UK).
TAT activity was measured as outlined in the literature by A. Ah et al., J. Med. Chem., 2004, 47, 2441-2452.
HepG2 cells were cultured using MEME media supplemented with 10% (v/v) foetal bovine serum; 2 mM L-glutamine and 1% (v/v) NEAA at 37° C., 5%/95% (v/v) CO2/air. The HepG2 cells were counted and adjusted to yield a density of 0.125×10^6 cells/ml in RPMI 1640 without phenol red, 10% (v/v) charcoal stripped FBS, 2 mM L-glutamine and seeded at 25,000 cells/well in 200 μl into 96 well, sterile, tissue culture micro titre plates, and incubated at 37° C., 5% CO2 for 24 hours
Growth media was removed and replaced with assay media {RPMI 1640 without phenol red, 2 mM L-glutamine+10 μM forskolin}. Test compounds were screened against a challenge of 100 nM dexamethasone. Compounds were serially half log diluted in 100% (v/v) dimethylsulphoxide from a 10 mM stock.
Test compounds were pre-incubated with cells in micro-titre plates for 30 minutes at 37° C., 5/95 (v/v) CO2/air, before the addition of 100 nM dexamethasone and then subsequently for 20 hours to allow optimal TAT induction.
HepG2 cells were then lysed with 30 μl of cell lysis buffer containing a protease inhibitor cocktail for 15 minutes at 4° C. […] After 2 hours incubation at 37° C. the reaction was terminated by the addition of 15 μl of 10M aqueous potassium hydroxide solution, and the plates incubated for a further 30 minutes at 37° C. The TAT activity product was measured by absorbance at λ 340 nm.
[compound] and fitting the data to a 4 parameter logistic equation. IC50 values were converted to Ki (equilibrium dissociation constant) using the Cheng and Prusoff equation, assuming the antagonists were competitive inhibitors with respect to dexamethasone.

| Molecule | Ki [nM] |
| --- | --- |
| Cc1cc2c(cnn2-c2cccc(C#N)c2)cc1C1(Cc2ccccc2)CCN(S(=O)(=O)c2cnn(C)n2)C1 (stereo not drawn) [Example 241, 3-(5-(3-benzyl-1-((2-methyl-2H-1,2,3-triazol-4-yl)sulfonyl)pyrrolidin-3-yl)-6-methyl-1H-indazol-1-yl)benzonitrile] | 44 |
| C#CCC1(c2cc3cnn(-c4ccc(F)cc4)c3cc2C)CCN(S(=O)(=O)c2cnn(CCC)c2)C1 (stereo not drawn) [Example 186] | 37 |
| CCCn1cc(S(=O)(=O)N2C[C@H](C)N(c3cc4cnn(-c5ccc(F)cc5)c4cc3C)C[C@H]2C)cn1 [Example 82] | 65 |
| Cc1cc2c(cnn2-c2ccc(F)cc2)cc1C1(Cc2cncs2)CCN(S(=O)(=O)c2cnn(C)c2)C1 (stereo not drawn) [Example 179] | 331 |
| Cc1cc2c(cnn2-c2ccc(F)cc2)cc1C1(Cc2ccccc2)CCN(C(=O)Cc2noc3ccccc23)C1 (stereo not drawn) [Example 198, 2-(benzo[d]isoxazol-3-yl)-1-(3-benzyl-3-(1-(4-fluorophenyl)-6-methyl-1H-indazol-5-yl)pyrrolidin-1-yl)ethan-1-one] | 30 |
| Cc1cc2c(cnn2-c2ccc(F)cc2)cc1C1(Cc2cncs2)CCN(S(C)(=O)=O)C1 (stereo not drawn) [Example 180] | 809 |
| C#CCC1(c2cc3cnn(-c4ccc(F)cc4)c3cc2C)CCN(S(=O)(=O)c2cnn(C)c2)C1 (stereo not drawn) [Example 185] | 164 |
| COc1ccc(-n2ncc3cc(C4(Cc5ccccc5)CCN(S(=O)(=O)c5cnn(C)n5)C4)c(C)cc32)cn1 (stereo not drawn) [Example 236, 5-(3-benzyl-1-((2-methyl-2H-1,2,3-triazol-4-yl)sulfonyl)pyrrolidin-3-yl)-1-(6-methoxypyridin-3-yl)-6-methyl-1H-indazole] | 81 |
| Cc1cc2c(cnn2-c2ccc(F)cc2)cc1C1(Cc2ccccc2)CCN(S(=O)(=O)c2cn(C)cn2)C1 (stereo not drawn) [Example 210, 5-(3-benzyl-1-((1-methyl-1H-imidazol-4-yl)sulfonyl)pyrrolidin-3-yl)-1-(4-fluorophenyl)-6-methyl-1H-indazole] | 41 |

Target: glucocorticoid receptor (GR) recombinant ligand binding domain (LBD) (Homo sapiens (Human), UniProt P04150)
Sequence (P04150 524-758): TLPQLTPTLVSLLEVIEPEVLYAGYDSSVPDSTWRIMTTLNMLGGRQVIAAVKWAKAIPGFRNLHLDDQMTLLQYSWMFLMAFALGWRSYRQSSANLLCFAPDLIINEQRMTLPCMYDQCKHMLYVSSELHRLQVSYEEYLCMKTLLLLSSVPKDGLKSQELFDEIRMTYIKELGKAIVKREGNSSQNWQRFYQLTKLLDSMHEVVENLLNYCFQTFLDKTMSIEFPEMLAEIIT
Test: GR binding fluorescence polarisation (FP) assay
Settings: displacement of fluorescently tagged ligand
Protocol: Binding of test compounds to the glucocorticoid receptor (GR) is determined using a fluorescence polarisation (FP) assay utilising a recombinant ligand binding domain (LBD) of GR. The test compounds are assessed by their ability to displace a fluorescently tagged ligand and detection of the resulting decrease in fluorescence polarisation.

| IC50 [nM] | Molecule |
| --- | --- |
| 206 | CCCn1cc(S(=O)(=O)N2CCN(c3ccc4c(cnn4-c4ccc(F)cc4)c3)C3(CC3)C2)cn1 [Example 3, 1-(4-fluorophenyl)-5-(7-((1-propyl-1H-pyrazol-4-yl)sulfonyl)-4,7-diazaspiro[2.5]octan-4-yl)-1H-indazole] |
| 151 | CC(C)Cn1cc(S(=O)(=O)N2CCN(c3ccc4c(cnn4-c4ccc(F)cc4)c3)C[C@H]2C)cn1 [Example 64] |
| 360 | C[C@@H]1CN(S(C)(=O)=O)[C@@H](C)CN1c1ccc2c(cnn2-c2ccc(F)cc2)c1 [Example 51] |
| 267 | Cc1cc2c(cnn2-c2ccc(F)cc2)cc1N1CCN(C(=O)Nc2ccccc2)C2(CC2)C1 [Example 102] |
| 6110 | Cc1cc2c(cnn2-c2ccc(F)cc2)cc1N1CCN(S(C)(=O)=O)CC1=O [Example 7, 1-(1-(4-fluorophenyl)-6-methyl-1H-indazol-5-yl)-4-(methylsulfonyl)piperazin-2-one] |
| 46 | Cc1cc2c(cnn2-c2ccc(F)cc2)cc1N1CC[C@@H](NS(=O)(=O)c2cnn(C)c2)C1 [Example 110] |
| 2 | CCCn1cc(S(=O)(=O)N[C@H]2CCN(c3cc4cnn(-c5ccc(F)cc5)c4cc3C)C2)cn1 [Example 4, (S)—N-(1-(1-(4-fluorophenyl)-6-methyl-1H-indazol-5-yl)pyrrolidin-3-yl)-1-propyl-1H-pyrazole-4-sulfonamide] |
| 57 | CCCn1cc(S(=O)(=O)N(C)C2CCN(c3cc4cnn(-c5ccc(F)cc5)c4cc3C)CC2)cn1 [Example 117] |
| 2320 | CC(C)C[C@@H]1CN(c2ccc3c(cnn3-c3ccc(F)cc3)c2)CCN1S(=O)(=O)c1cnn(C)c1 [Example 42] |
| 431 | C[C@@H]1CN(S(C)(=O)=O)[C@H](C)CN1c1ccc2c(cnn2-c2ccc(F)cc2)c1 [Example 62] |
| 3550 | C[C@H]1CN(S(=O)(=O)c2cnn(C)c2)CCN1c1ccc2c(cnn2-c2ccc(F)cc2)c1 [Example 36] |
| 101 | Cc1cc2c(cnn2-c2ccc(F)cc2)cc1C1=CCN(S(C)(=O)=O)CC1 [Example 138] |
| 215 | CCCNS(=O)(=O)N1CCN(c2ccc3c(cnn3-c3ccc(F)cc3)c2)C[C@H]1C [Example 63] |
| 455 | COC[C@@H]1CN(c2ccc3c(cnn3-c3ccc(F)cc3)c2)CCN1S(=O)(=O)c1cnn(CC2CC2)c1 [Example 15, (S)-5-(4-((1-(cyclopropylmethyl)-1H-pyrazol-4-yl)sulfonyl)-3-(methoxymethyl)piperazin-1-yl)-1-(4-fluorophenyl)-1H-indazole] |
| 1810 | CC(=O)N1CCN(c2ccc3c(cnn3-c3ccc(F)cc3)c2)[C@H](C)C1 [Example 97] |
| 1950 | C[C@H]1CN(c2ccc3c(cnn3-c3ccc(F)cc3)c2)CCN1S(=O)(=O)c1cnn(C)c1 [Example 38] |
| 7 | Cc1cc2c(cnn2-c2ccc(F)cc2)cc1N1CC[C@H](NS(C)(=O)=O)C1 [Example 108] |
| 3 | CCCn1cc(S(=O)(=O)NC2CCN(c3cc4cnn(-c5ccc(F)cc5)c4cc3C)CC2)cn1 [Example 107] |

| IC50 [nM] | Molecule |
| --- | --- |
| 67 | Cn1cc(S(=O)(=O)C2CCN(c3ccc4c(cnn4-c4ccc(F)cc4)c3)CC2)cn1 [Example 33, 1-(4-fluorophenyl)-5-(4-((1-methyl-1H-pyrazol-4-yl)sulfonyl)piperidin-1-yl)-1H-indazole] |
| 126 | CCCn1cc(S(=O)(=O)N(C)[C@H]2CCN(c3cc4cnn(-c5ccc(F)cc5)c4cc3C)C2)cn1 [Example 5, (S)—N-(1-(1-(4-fluorophenyl)-6-methyl-1H-indazol-5-yl)pyrrolidin-3-yl)-N-methyl-1-propyl-1H-pyrazole-4-sulfonamide] |
| 434 | CCCn1cc(S(=O)(=O)N2CCCC23CCN(c2cc4cnn(-c5ccc(F)cc5)c4cc2C)CC3)cn1 [Example 89] |
| 174 | Cc1cc2c(cnn2-c2ccc(F)cc2)cc1N1CCCC(N(C)S(=O)(=O)c2cnn(C)c2)C1 (stereo not drawn) [Example 127] |
| 2560 | Cc1cc2c(cnn2-c2ccc(F)cc2)cc1N1CCC2(CCN(S(=O)(=O)c3cnn(C)c3)CC2)C1 [Example 96] |
| 3740 | CCCn1cc(S(=O)(=O)N2CCN(c3ccc4c(cnn4-c4ccc(F)cc4)n3)CC23CC3)cn1 [Example 72] |
| 1810 | C[C@@H]1CN(S(=O)(=O)C2CCCC2)CCN1c1ccc2c(cnn2-c2ccc(F)cc2)c1 [Example 35] |
| 249 | Cc1cc2c(cnn2-c2ccc(F)cc2)cc1N1CC[C@H](N(C)S(C)(=O)=O)C1 [Example 112] |
| 102 | Cc1cc2c(cnn2-c2ccc(F)cc2)cc1C1CCN(S(C)(=O)=O)CC1 [Example 136] |
| 3900 | CCCn1cc(S(=O)(=O)N2CCN(c3cc4cnn(-c5ccc(F)cc5)c4cc3C)C(=O)C2)cn1 [Example 209, 1-(1-(4-fluorophenyl)-6-methyl-1H-indazol-5-yl)-4-((1-propyl-1H-pyrazol-4-yl)sulfonyl)piperazin-2-one] |
| 898 | CC(=O)N1CCN(c2ccc3c(cnn3-c3ccc(F)cc3)c2)C[C@H]1CC(C)C [Example 99] |
| 396 | C[C@@H]1CN(c2ccc3c(cnn3-c3ccc(F)cc3)c2)CCN1S(=O)(=O)c1cnn(C)c1 [Example 37] |
| 1160 | CCCn1cc(S(=O)(=O)N2CCN(c3cc4cnn(-c5ccc(F)cc5)c4cn3)CC23CC3)cn1 [Example 69] |
| 9 | Cc1cc2c(cnn2-c2ccc(F)cc2)cc1N1CCC(NS(C)(=O)=O)CC1 [Example 106] |
| 857 | CCCn1cc(S(=O)(=O)N2CCC(C(=O)N3CCCC3)(c3cc4cnn(-c5ccc(F)cc5)c4cc3C)CC2)cn1 [Example 22, (4-(1-(4-fluorophenyl)-6-methyl-1H-indazol-5-yl)-1-((1-propyl-1H-pyrazol-4-yl)sulfonyl)piperidin-4-yl)(pyrrolidin-1-yl)methanone] |
| 82 | CCCn1cc(S(=O)(=O)N2CC[C@H](c3cc4cnn(-c5ccc(F)cc5)c4cc3C)C[C@H]2C)cn1 [Example 13, 1-(4-fluorophenyl)-6-methyl-5-((2R,4S)-2-methyl-1-((1-propyl-1H-pyrazol-4-yl)sulfonyl)piperidin-4-yl)-1H-indazole] |
| 308 | CCCn1cc(S(=O)(=O)N2CC=C(c3ccc4c(cnn4-c4ccc(F)cc4)c3)CC2)cn1 [Example 137] |

| Molecule | IC50 [nM] |
| --- | --- |
| 1-(4-fluorophenyl)-5-(4-(methoxymethyl)-1-((1-propyl-1H-pyrazol-4-yl)sulfonyl)piperidin-4-yl)-1H-indazole [Example 23] | 1300 |
